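GI50 = concentration required for 50% inhibition of growth. Definition used: TGI = concentration required for complete inhibition of growth.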
What was measured:
Assay in all cases: NCI anticancer screen, dose series, 384-well format
KM12 colon = test system: KM12 colon
BT-549 breast = test system: BT-549 breast
NCI-H322M lung = test system: NCI-H322M lung
NCI/ADR-RES ovarian = test system: NCI/ADR-RES ovarian
HT29 colon = test system: HT29 colon
UO-31 renal = test system: UO-31 renal
MDA-MB-231 breast = test system: MDA-MB-231 breast
HL-60(TB) leukemia = test system: HL-60(TB) leukemia
TK-10 renal = test system: TK-10 renal
IGROV1 ovarian = test system: IGROV1 ovarian
OVCAR-4 ovarian = test system: OVCAR-4 ovarian
OVCAR-3 ovarian = test system: OVCAR-3 ovarian
MCF7 breast = test system: MCF7 breast
OVCAR-5 ovarian = test system: OVCAR-5 ovarian
T-47D breast = test system: T-47D breast
OVCAR-8 ovarian = test system: OVCAR-8 ovarian
SK-MEL-5 melanoma = test system: SK-MEL-5 melanoma
A498 renal = test system: A498 renal
SNB-19 CNS = test system: SNB-19 CNS
K-562 leukemia = test system: K-562 leukemia
RPMI-8226 leukemia = test system: RPMI-8226 leukemia
LOX IMVI melanoma = test system: LOX IMVI melanoma
M14 melanoma = test system: M14 melanoma
MALME-3M melanoma = test system: MALME-3M melanoma
SK-OV-3 ovarian = test system: SK-OV-3 ovarian
NCI-H23 lung = test system: NCI-H23 lung
CCRF-CEM leukemia = test system: CCRF-CEM leukemia
SF-268 CNS = test system: SF-268 CNS
HCC-2998 colon = test system: HCC-2998 colon
NCI-H522 lung = test system: NCI-H522 lung
SK-MEL-2 melanoma = test system: SK-MEL-2 melanoma
HOP-62 NSCLC = test system: HOP-62 NSCLC
SF-295 CNS = test system: SF-295 CNS
SNB-75 CNS = test system: SNB-75 CNS
PC-3 prostate = test system: PC-3 prostate
HOP-92 NSCLC = test system: HOP-92 NSCLC
786-0 renal = test system: 786-0 renal
SF-539 CNS = test system: SF-539 CNS
DU-145 prostate = test system: DU-145 prostate
A549 NSCLC = test system: A549 NSCLC
U251 glioblastoma = test system: U251 glioblastoma
MDA-MB-435 melanoma = test system: MDA-MB-435 melanoma
MDA-MB-468 breast = test system: MDA-MB-468 breast
CAKI-1 renal = test system: CAKI-1 renal
COLO 205 colon = test system: COLO 205 colon
HCT-15 colon = test system: HCT-15 colon
MOLT-4 leukemia = test system: MOLT-4 leukemia
SK-MEL-28 melanoma = test system: SK-MEL-28 melanoma
NCI-H226 lung = test system: NCI-H226 lung
HS 578T breast = test system: HS 578T breast
SW-620 colon = test system: SW-620 colon
HCT-116 colon = test system: HCT-116 colon
NCI-H460 NSCLC = test system: NCI-H460 NSCLC
RXF 393 renal = test system: RXF 393 renal
EKVX NSCLC = test system: EKVX NSCLC

**Q.** Which results are given for `COC[C@H]1Cn2cc(-c3nc(Nc4ccnn4C)ncc3C)nc2C(=O)N1Cc1ccc(F)c(F)c1`?
**A.** GI50 (KM12 colon): 0.255 µM; TGI (KM12 colon): > 100 µM; GI50 (BT-549 breast): 18.6 µM; TGI (BT-549 breast): > 100 µM; GI50 (NCI-H322M lung): 0.145 µM; TGI (NCI-H322M lung): > 100 µM; GI50 (NCI/ADR-RES ovarian): 93.6 µM; TGI (NCI/ADR-RES ovarian): > 100 µM; GI50 (HT29 colon): 0.0947 µM; TGI (HT29 colon): > 100 µM; GI50 (UO-31 renal): 2.73 µM; TGI (UO-31 renal): > 100 µM; GI50 (MDA-MB-231 breast): 0.266 µM; TGI (MDA-MB-231 breast): > 100 µM; GI50 (HL-60(TB) leukemia): 0.0154 µM; TGI (HL-60(TB) leukemia): 1.55 µM; GI50 (TK-10 renal): 0.79 µM; TGI (TK-10 renal): 76.7 µM; GI50 (IGROV1 ovarian): 0.314 µM; TGI (IGROV1 ovarian): > 100 µM; GI50 (OVCAR-4 ovarian): 61.9 µM; TGI (OVCAR-4 ovarian): > 100 µM; GI50 (OVCAR-3 ovarian): 43.5 µM; TGI (OVCAR-3 ovarian): > 100 µM; GI50 (MCF7 breast): 19.6 µM; TGI (MCF7 breast): > 100 µM; GI50 (OVCAR-5 ovarian): 0.217 µM; TGI (OVCAR-5 ovarian): > 100 µM; GI50 (T-47D breast): 53.4 µM; TGI (T-47D breast): > 100 µM; GI50 (OVCAR-8 ovarian): 71.6 µM; TGI (OVCAR-8 ovarian): > 100 µM; GI50 (SK-MEL-5 melanoma): 0.064 µM; TGI (SK-MEL-5 melanoma): 35.7 µM; GI50 (A498 renal): 1.3 µM; TGI (A498 renal): > 100 µM; GI50 (SNB-19 CNS): 53.2 µM; TGI (SNB-19 CNS): > 100 µM; GI50 (K-562 leukemia): 1.03 µM; TGI (K-562 leukemia): > 100 µM; GI50 (RPMI-8226 leukemia): 0.771 µM; TGI (RPMI-8226 leukemia): 2.6 µM; GI50 (LOX IMVI melanoma): 0.0393 µM; TGI (LOX IMVI melanoma): 0.31 µM; GI50 (M14 melanoma): 0.0106 µM; TGI (M14 melanoma): 0.181 µM; GI50 (MALME-3M melanoma): < 0.01 µM; TGI (MALME-3M melanoma): 0.0237 µM; GI50 (SK-OV-3 ovarian): 18.2 µM; TGI (SK-OV-3 ovarian): > 100 µM; GI50 (NCI-H23 lung): 0.0369 µM; TGI (NCI-H23 lung): 2.11 µM; GI50 (CCRF-CEM leukemia): 17.6 µM; TGI (CCRF-CEM leukemia): 37.9 µM; GI50 (SF-268 CNS): 95.9 µM; TGI (SF-268 CNS): > 100 µM; GI50 (HCC-2998 colon): 0.0316 µM; TGI (HCC-2998 colon): 0.219 µM; GI50 (NCI-H522 lung): 1.09 µM; TGI (NCI-H522 lung): > 100 µM; GI50 (SK-MEL-2 melanoma): 0.0366 µM; TGI (SK-MEL-2 melanoma): 0.196 µM; GI50 (HOP-62 NSCLC): 2.02 µM; TGI (HOP-62 NSCLC): > 100 µM; GI50 (SF-295 CNS): > 100 µM; TGI (SF-295 CNS): > 100 µM; GI50 (SNB-75 CNS): 24.3 µM; TGI (SNB-75 CNS): > 100 µM; GI50 (PC-3 prostate): 38.4 µM; TGI (PC-3 prostate): > 100 µM; GI50 (HOP-92 NSCLC): 0.389 µM; TGI (HOP-92 NSCLC): 11.6 µM; GI50 ([…]-0 renal): 24.6 µM; TGI (786-0 renal): > 100 µM; GI50 (SF-539 CNS): 18.4 µM; TGI (SF-539 CNS): > 100 µM; GI50 (DU-145 prostate): 10.4 µM; TGI (DU-145 prostate): > 100 µM; GI50 (A549 NSCLC): 0.373 µM; TGI (A549 NSCLC): > 100 µM; GI50 (U251 glioblastoma): 2.25 µM; TGI (U251 glioblastoma): > 100 µM; GI50 (MDA-MB-435 melanoma): 0.0355 µM; TGI (MDA-MB-435 melanoma): > 100 µM; GI50 (MDA-MB-468 breast): 14.2 µM; TGI (MDA-MB-468 breast): 52.2 µM; GI50 (CAKI-1 renal): 0.509 µM; TGI (CAKI-1 renal): > 100 µM; GI50 (COLO 205 colon): < 0.01 µM; TGI (COLO 205 colon): 0.36 µM; GI50 (HCT-15 colon): 24.8 µM; TGI (HCT-15 colon): > 100 µM; GI50 (MOLT-4 leukemia): 16.9 µM; TGI (MOLT-4 leukemia): 46.5 µM; GI50 (SK-MEL-28 melanoma): < 0.01 µM; TGI (SK-MEL-28 melanoma): 0.108 µM; GI50 (NCI-H226 lung): 0.612 µM; TGI (NCI-H226 lung): > 100 µM; GI50 (HS 578T breast): 15.8 µM; TGI (HS 578T breast): > 100 µM; GI50 (SW-620 colon): 0.0875 µM; TGI (SW-620 colon): 58.6 µM; GI50 (HCT-116 colon): 0.0577 µM; TGI (HCT-116 colon): 32.3 µM; GI50 (NCI-H460 NSCLC): 2.03 µM; TGI (NCI-H460 NSCLC): > 100 µM; GI50 (RXF 393 renal): 23.6 µM; TGI (RXF 393 renal): > 100 µM; GI50 (EKVX NSCLC): 11 µM; TGI (EKVX NSCLC): > 100 µM

— PubChem BioAssay (NCI)
